According to the supplement of paper PMC10307832:

Columns and labels:
Assay in all cases: relative viability (nuclei count vs DMSO), 5 days (fraction); higher = more cells survive
HCC-827 = system: HCC-827
Summary of the method: (§1)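 Lung cancer cell lines were seeded in 1536-well plates and dosed by pin tool the next day, with either a single drug or a fixed anchor-drug dose combined with five library-drug doses (not always all listed) spaced in √10 steps. Five days later, one step fixed the cells and stained their nuclei (final 0.05% Triton X-100, 1% formaldehyde, 1 ug/ml Hoechst), and nuclei were counted on 4× images. Relative viability is the nuclei count in treated wells divided by the count in vehicle wells, and each value is the median of duplicate plates.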

COR-L23 = system: COR-L23
Summary of the method: as §1

HCC-15 = system: HCC-15
Summary of the method: as §1

HCC-44 = system: HCC-44
Summary of the method: as §1

NCI-H596 = system: NCI-H596
Summary of the method: as §1

BEN = system: BEN
Summary of the method: as §1

NCI-H1650 = system: NCI-H1650
Summary of the method: as §1

NCI-H1975 = system: NCI-H1975
Summary of the method: as §1

NCI-H23 = system: NCI-H23
Summary of the method: as §1

NCI-H1666 = system: NCI-H1666
Summary of the method: as §1

A-427 = system: A-427
Summary of the method: as §1

NCI-H650 = system: NCI-H650
Summary of the method: as §1

NCI-H441 = system: NCI-H441
Summary of the method: as §1

EKVX = system: EKVX
Summary of the method: as §1

NCI-H1437 = system: NCI-H1437
Summary of the method: as §1

HARA = system: HARA
Summary of the method: as §1

NCI-H838 = system: NCI-H838
Summary of the method: as §1

201T = system: 201T
Summary of the method: as §1

NCI-H1792 = system: NCI-H1792
Summary of the method: as §1

COc1nc(C)cnc1NS(=O)(=O)c1cccnc1-c1ccc(-c2nnco2)cc1 [Zibotentan] + CC(C)C[C@H](NC(=O)[C@H](Cc1ccccc1)NC(=O)c1cnccn1)B(O)O [Bortezomib] (partner 0.002 µM)
relative viability (HCC-827; first compound 0.08 µM): 1.08 | relative viability (HCC-827; first compound 0.253 µM): 0.994 | relative viability (HCC-827; first compound 0.8 µM): 1.05 | relative viability (HCC-827; first compound 2.53 µM): 1.04 | relative viability (COR-L23; first compound 0.08 µM): 0.999 | relative viability (COR-L23; first compound 0.253 µM): 0.917 | relative viability (COR-L23; first compound 0.8 µM): 0.98 | relative viability (COR-L23; first compound 2.53 µM): 1.07 | relative viability (HCC-15; first compound 0.08 µM): 0.99 | relative viability (HCC-15; first compound 0.253 µM): 1.01 | relative viability (HCC-15; first compound 0.8 µM): 0.979 | relative viability (HCC-15; first compound 2.53 µM): 1.09 | relative viability (HCC-44; first compound 0.08 µM): 0.909 | relative viability (HCC-44; first compound 0.253 µM): 0.894 | relative viability (HCC-44; first compound 0.8 µM): 0.959 | relative viability (HCC-44; first compound 2.53 µM): 0.883 | relative viability (NCI-H596; first compound 0.08 µM): 0.966 | relative viability (NCI-H596; first compound 0.253 µM): 0.935 | relative viability (NCI-H596; first compound 0.8 µM): 1.06 | relative viability (NCI-H596; first compound 2.53 µM): 1.31 | relative viability (BEN; first compound 0.08 µM): 0.912 | relative viability (BEN; first compound 0.253 µM): 0.824 | relative viability (BEN; first compound 0.8 µM): 0.792 | relative viability (BEN; first compound 2.53 µM): 0.593 | relative viability (NCI-H1650; first compound 0.08 µM): 0.209 | relative viability (NCI-H1650; first compound 0.8 µM): 0.198 | relative viability (NCI-H1650; first compound 2.53 µM): 0.194 | relative viability (NCI-H1975; first compound 0.08 µM): 0.378 | relative viability (NCI-H1975; first compound 0.253 µM): 0.293 | relative viability (NCI-H1975; first compound 0.8 µM): 0.411 | relative viability (NCI-H1975; first compound 2.53 µM): 0.419 | relative viability (NCI-H23; first compound 0.08 µM): 1.25 | relative viability (NCI-H23; first compound 0.253 µM): 1.1 | relative viability (NCI-H23; first compound 0.8 µM): 0.999 | relative viability (NCI-H23; first compound 2.53 µM): 1.29 | relative viability (NCI-H1666; first compound 0.08 µM): 0.76 | relative viability (NCI-H1666; first compound 0.253 µM): 0.599 | relative viability (NCI-H1666; first compound 0.8 µM): 0.8 | relative viability (NCI-H1666; first compound 2.53 µM): 1 | relative viability (A-427; first compound 0.08 µM): 1.05 | relative viability (A-427; first compound 0.253 µM): 1.06 | relative viability (A-427; first compound 0.8 µM): 1.02 | relative viability (A-427; first compound 2.53 µM): 1.01 | relative viability (NCI-H650; first compound 0.08 µM): 0.769 | relative viability (NCI-H650; first compound 0.253 µM): 0.742 | relative viability (NCI-H650; first compound 0.8 µM): 0.726 | relative viability (NCI-H650; first compound 2.53 µM): 0.696 | relative viability (NCI-H441; first compound 0.08 µM): 0.846 | relative viability (NCI-H441; first compound 0.8 µM): 0.463 | relative viability (NCI-H441; first compound 2.53 µM): 0.539 | relative viability (EKVX; first compound 0.08 µM): 1.13 | relative viability (EKVX; first compound 0.253 µM): 1.17 | relative viability (EKVX; first compound 0.8 µM): 1.11 | relative viability (EKVX; first compound 2.53 µM): 1.07 | relative viability (NCI-H1437; first compound 0.08 µM): 0.486 | relative viability (NCI-H1437; first compound 0.253 µM): 0.504 | relative viability (NCI-H1437; first compound 0.8 µM): 0.454 | relative viability (NCI-H1437; first compound 2.53 µM): 0.53 | relative viability (HARA; first compound 0.08 µM): 1.18 | relative viability (HARA; first compound 0.253 µM): 1.13 | relative viability (HARA; first compound 0.8 µM): 1.15 | relative viability (HARA; first compound 2.53 µM): 1.19 | relative viability (NCI-H838; first compound 0.08 µM): 0.891 | relative viability (NCI-H838; first compound 0.253 µM): 0.865 | relative viability (NCI-H838; first compound 0.8 µM): 0.815 | relative viability (NCI-H838; first compound 2.53 µM): 0.961 | relative viability (201T; first compound 0.08 µM): 1.1 | relative viability (201T; first compound 0.253 µM): 1.05 | relative viability (201T; first compound 0.8 µM): 1.11 | relative viability (201T; first compound 2.53 µM): 1.11 | relative viability (NCI-H1792; first compound 0.08 µM): 0.912 | relative viability (NCI-H1792; first compound 0.253 µM): 0.833 | relative viability (NCI-H1792; first compound 0.8 µM): 0.921 | relative viability (NCI-H1792; first compound 2.53 µM): 0.935

O=c1cc(-c2cccc3c2Sc2ccccc2S3)oc(N2CCOCC2)c1 + CC(C)C[C@H](NC(=O)[C@H](Cc1ccccc1)NC(=O)c1cnccn1)B(O)O [Bortezomib] (partner 0.002 µM)
relative viability (HCC-827; first compound 0.08 µM): 0.962 | relative viability (HCC-827; first compound 0.253 µM): 0.96 | relative viability (HCC-827; first compound 0.8 µM): 0.974 | relative viability (HCC-827; first compound 2.53 µM): 0.873 | relative viability (HCC-827; first compound 8 µM): 1.11 | relative viability (COR-L23; first compound 0.08 µM): 1.13 | relative viability (COR-L23; first compound 0.253 µM): 1.49 | relative viability (COR-L23; first compound 0.8 µM): 1.2 | relative viability (COR-L23; first compound 2.53 µM): 1 | relative viability (COR-L23; first compound 8 µM): 1.48 | relative viability (HCC-15; first compound 0.08 µM): 1.07 | relative viability (HCC-15; first compound 0.253 µM): 1.27 | relative viability (HCC-15; first compound 0.8 µM): 1.22 | relative viability (HCC-15; first compound 2.53 µM): 1 | relative viability (HCC-15; first compound 8 µM): 1.16 | relative viability (HCC-44; first compound 0.08 µM): 0.907 | relative viability (HCC-44; first compound 0.253 µM): 1.07 | relative viability (HCC-44; first compound 0.8 µM): 0.837 | relative viability (HCC-44; first compound 2.53 µM): 0.816 | relative viability (HCC-44; first compound 8 µM): 1.03 | relative viability (NCI-H596; first compound 0.08 µM): 0.985 | relative viability (NCI-H596; first compound 0.253 µM): 1.18 | relative viability (NCI-H596; first compound 0.8 µM): 0.959 | relative viability (NCI-H596; first compound 2.53 µM): 0.745 | relative viability (NCI-H596; first compound 8 µM): 1.14 | relative viability (BEN; first compound 0.08 µM): 0.802 | relative viability (BEN; first compound 0.253 µM): 0.858 | relative viability (BEN; first compound 0.8 µM): 0.991 | relative viability (BEN; first compound 2.53 µM): 0.889 | relative viability (BEN; first compound 8 µM): 1.23 | relative viability (NCI-H1650; first compound 0.08 µM): 0.212 | relative viability (NCI-H1650; first compound 0.253 µM): 0.168 | relative viability (NCI-H1650; first compound 0.8 µM): 0.189 | relative viability (NCI-H1650; first compound 2.53 µM): 0.16 | relative viability (NCI-H1650; first compound 8 µM): 0.184 | relative viability (NCI-H1975; first compound 0.08 µM): 0.425 | relative viability (NCI-H1975; first compound 0.253 µM): 0.419 | relative viability (NCI-H1975; first compound 0.8 µM): 0.319 | relative viability (NCI-H1975; first compound 2.53 µM): 0.367 | relative viability (NCI-H1975; first compound 8 µM): 0.384 | relative viability (NCI-H23; first compound 0.08 µM): 0.948 | relative viability (NCI-H23; first compound 0.253 µM): 1.16 | relative viability (NCI-H23; first compound 0.8 µM): 1.25 | relative viability (NCI-H23; first compound 2.53 µM): 0.914 | relative viability (NCI-H23; first compound 8 µM): 1.09 | relative viability (NCI-H1666; first compound 0.08 µM): 0.666 | relative viability (NCI-H1666; first compound 0.253 µM): 0.887 | relative viability (NCI-H1666; first compound 0.8 µM): 0.559 | relative viability (NCI-H1666; first compound 2.53 µM): 0.793 | relative viability (NCI-H1666; first compound 8 µM): 0.759 | relative viability (A-427; first compound 0.08 µM): 1.09 | relative viability (A-427; first compound 0.253 µM): 0.977 | relative viability (A-427; first compound 0.8 µM): 0.999 | relative viability (A-427; first compound 2.53 µM): 0.931 | relative viability (A-427; first compound 8 µM): 1.03 | relative viability (NCI-H650; first compound 0.08 µM): 0.701 | relative viability (NCI-H650; first compound 0.253 µM): 0.74 | relative viability (NCI-H650; first compound 0.8 µM): 0.869 | relative viability (NCI-H650; first compound 2.53 µM): 0.599 | relative viability (NCI-H650; first compound 8 µM): 0.803 | relative viability (NCI-H441; first compound 0.08 µM): 0.488 | relative viability (NCI-H441; first compound 0.253 µM): 1.25 | relative viability (NCI-H441; first compound 0.8 µM): 0.98 | relative viability (NCI-H441; first compound 2.53 µM): 0.45 | relative viability (NCI-H441; first compound 8 µM): 0.594 | relative viability (EKVX; first compound 0.08 µM): 0.977 | relative viability (EKVX; first compound 0.253 µM): 1.11 | relative viability (EKVX; first compound 0.8 µM): 1.1 | relative viability (EKVX; first compound 2.53 µM): 1.06 | relative viability (EKVX; first compound 8 µM): 1.1 | relative viability (NCI-H1437; first compound 0.08 µM): 0.51 | relative viability (NCI-H1437; first compound 0.253 µM): 0.626 | relative viability (NCI-H1437; first compound 0.8 µM): 0.473 | relative viability (NCI-H1437; first compound 2.53 µM): 0.555 | relative viability (NCI-H1437; first compound 8 µM): 0.543 | relative viability (HARA; first compound 0.08 µM): 1.09 | relative viability (HARA; first compound 0.253 µM): 1.37 | relative viability (HARA; first compound 0.8 µM): 0.926 | relative viability (HARA; first compound 2.53 µM): 0.921 | relative viability (HARA; first compound 8 µM): 1.24 | relative viability (NCI-H838; first compound 0.08 µM): 0.703 | relative viability (NCI-H838; first compound 0.253 µM): 1.05 | relative viability (NCI-H838; first compound 0.8 µM): 0.728 | relative viability (NCI-H838; first compound 2.53 µM): 0.693 | relative viability (NCI-H838; first compound 8 µM): 0.588 | relative viability (201T; first compound 0.08 µM): 1.07 | relative viability (201T; first compound 0.253 µM): 1.15 | relative viability (201T; first compound 0.8 µM): 1.15 | relative viability (201T; first compound 2.53 µM): 1.02 | relative viability (201T; first compound 8 µM): 1.08 | relative viability (NCI-H1792; first compound 0.253 µM): 1.4 | relative viability (NCI-H1792; first compound 0.8 µM): 1.05 | relative viability (NCI-H1792; first compound 2.53 µM): 0.904 | relative viability (NCI-H1792; first compound 8 µM): 1.27
